The source of these data is PubChem BioAssay (NCI).

Among the test systems are SNB-78 CNS; XF 498 CNS; DMS 273 small cell lung; DLD-1 colon; UACC-257 melanoma; SF-295 CNS; LXFL 529 NSCLC; RPMI-8226 leukemia; DMS 114 small cell lung; RXF-631 renal; KM20L2 colon; A549 NSCLC; M19-MEL melanoma; HOP-18 NSCLC; BT-549 breast.
What all share (experiment): inhibition of tumour cell growth, NCI panel, 48 h

The structures appear in SMILES notation.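 Results reflect a 48-hour exposure of cells in 96-well plates to compound at five concentrations. Definition used: TGI = concentration required for complete inhibition of growth.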 Where a SMILES comes first, the peptide text is derived from it. [ ]: non-standard residue; d: D form. The star is where a group is joined. ξ: configuration not given here. NMeF = CN[CH](Cc1ccccc1)C(=O)O; ξNMe2Val = CC(C)C(C(=O)*)N(C)C; NMeV = CN[CH](C(=O)O)C(C)C; OtBu = CC(C)(C)O*

On to `CCCCOC(=O)NC(=O)c1cn(CCCOC(=O)CCCCCCCCC(=O)OCCCn2cc(C(=O)NC(=O)OCCCC)c(=O)n(C)c2=O)c(=O)n(C)c1=O`, for which the TGI in the test on SNB-78 CNS, in the test on XF 498 CNS, with DMS 273 small cell lung, in the test with DLD-1 colon, with UACC-257 melanoma and in the test on SF-295 CNS was more than 100 µM each time. Besides, the TGI with LXFL 529 NSCLC, with RPMI-8226 leukemia, in the test with DMS 114 small cell lung, in the test with RXF-631 renal, in the test with KM20L2 colon and in the test on A549 NSCLC was more than 100 µM in each case. The TGI in the test on M19-MEL melanoma is more than 100 µM.
As to `O=C1[C@@H]2C(c3ccccc3[N+](=O)[O-])=NO[C@@H]2C(=O)N1c1ccc(Cc2ccc(N3C(=O)[C@H]4C(c5ccccc5[N+](=O)[O-])=NO[C@H]4C3=O)cc2)cc1`, the TGI in the test with SNB-78 CNS, in the test with DLD-1 colon, in the test on UACC-257 melanoma, in the test on SF-295 CNS, in the test with HOP-18 NSCLC and in the test on LXFL 529 NSCLC was more than 100 µM each time. In addition, the TGI with RPMI-8226 leukemia, in the test with DMS 114 small cell lung and in the test on KM20L2 colon was more than 100 µM in each case.
Take `CC(C)C(C(=O)N(C)C(Cc1ccccc1)C(=O)N(C)C(C(=O)N(C)C(C(=O)N1CCCC1C(=O)OC(C)(C)C)C(C)C)C(C)C)N(C)C` (stereo not given) (ξNMe2Val-[NMeF][NMeV][NMeV]P-OtBu; configuration not given here): the TGI in the test with XF 498 CNS was 86.1 µM; with DMS 273 small cell lung, 84.1 µM; in the test with UACC-257 melanoma, more than 100 µM; in the test with SF-295 CNS, more than 100 µM; in the test on LXFL 529 NSCLC it was more than 100 µM; in the test on RPMI-8226 leukemia, more than 100 µM. The TGI with DMS 114 small cell lung is more than 100 µM; in the test on KM20L2 colon, 46.4 µM; in the test with A549 NSCLC, more than 100 µM; with M19-MEL melanoma, more than 100 µM.
As to `CC(=O)OCC1OC(n2c(=S)n(-c3ccccc3)c(=O)c3cc(Br)ccc32)C(OC(C)=O)C1OC(C)=O` (stereo not given), the TGI in the test on SNB-78 CNS, in the test on XF 498 CNS, in the test with DMS 273 small cell lung, in the test on DLD-1 colon, in the test with UACC-257 melanoma and in the test on SF-295 CNS was more than 100 µM throughout. The TGI in the test on HOP-18 NSCLC, in the test on LXFL 529 NSCLC, with RPMI-8226 leukemia, with DMS 114 small cell lung, in the test on KM20L2 colon and with A549 NSCLC was more than 100 µM throughout. In addition, the TGI in the test with M19-MEL melanoma is more than 100 µM.
For the compound `CCCCCCCCCCCC[N+]12CC[N+](C)(CC1)CC2`, the TGI with SNB-78 CNS is 76 µM; with XF 498 CNS, 80 µM; in the test with DMS 273 small cell lung, 15.1 µM; in the test with DLD-1 colon, more than 100 µM; in the test on UACC-257 melanoma, more than 100 µM; in the test on SF-295 CNS it was more than 100 µM. In addition, the TGI with HOP-18 NSCLC is more than 100 µM; with LXFL 529 NSCLC, more than 100 µM; in the test with RPMI-8226 leukemia, 41.7 µM; in the test on DMS 114 small cell lung, 44.6 µM; in the test on KM20L2 colon, 85.9 µM; with A549 NSCLC, more than 100 µM. This compound came in with a TGI in the test on M19-MEL melanoma of 70.9 µM.
Take `Brc1ccc(-c2cc3c(cc2C2SCCS2)OCO3)cc1`: the TGI in the test on SNB-78 CNS, with XF 498 CNS, in the test with DMS 273 small cell lung, with DLD-1 colon, in the test with UACC-257 melanoma and with SF-295 CNS was more than 100 µM each time. Further, the TGI in the test with HOP-18 NSCLC, in the test on LXFL 529 NSCLC, with DMS 114 small cell lung, in the test on KM20L2 colon, in the test on A549 NSCLC and in the test with M19-MEL melanoma was more than 100 µM throughout.
For `O=C1Nc2ccc(Cl)c(I)c2C1=O`, the TGI in the test on XF 498 CNS amounted to 34.2 µM; in the test on DMS 273 small cell lung it was 30.8 µM; in the test on DLD-1 colon, 31.4 µM; in the test with UACC-257 melanoma, 33 µM; in the test with SF-295 CNS it was 32.3 µM; in the test with LXFL 529 NSCLC, 30.5 µM. The TGI with DMS 114 small cell lung was 34.2 µM; with KM20L2 colon, 34.9 µM; in the test on A549 NSCLC, more than 100 µM; in the test on M19-MEL melanoma, 24.9 µM.
Take `CCCCCCCCCCCCCS(=O)(=O)NCC(N)=O`: the TGI with SNB-78 CNS, in the test on XF 498 CNS, with DLD-1 colon, in the test on UACC-257 melanoma, with SF-295 CNS and with HOP-18 NSCLC was more than 100 µM in each case. In addition, the TGI in the test on LXFL 529 NSCLC, with DMS 114 small cell lung, in the test with KM20L2 colon, in the test with A549 NSCLC and in the test with M19-MEL melanoma was more than 100 µM throughout.
For `CSC(C1c2ccccc2N(C)c2[nH]c(=O)n(C)c(=O)c21)S(=O)(=O)c1ccc(C)cc1` (stereo not given), the TGI in the test with SNB-78 CNS, in the test on XF 498 CNS, in the test on DMS 273 small cell lung, in the test on DLD-1 colon, with UACC-257 melanoma and in the test with SF-295 CNS was more than 100 µM throughout. For the same compound, the TGI in the test on HOP-18 NSCLC, in the test with LXFL 529 NSCLC, with DMS 114 small cell lung, in the test with A549 NSCLC and with M19-MEL melanoma was more than 100 µM in each case.
As for `Cc1ccc(S(=O)(=O)NNS(C)(=O)=O)cc1`, the TGI with DMS 273 small cell lung, in the test with DLD-1 colon, with UACC-257 melanoma, with SF-295 CNS, in the test with LXFL 529 NSCLC and with RPMI-8226 leukemia was more than 100 µM throughout. The TGI in the test on DMS 114 small cell lung, with KM20L2 colon, in the test on A549 NSCLC and with M19-MEL melanoma was more than 100 µM in each case.
Consider `NC(=S)N1N=C2c3ccccc3CCC[C@H]2[C@@H]1c1ccccc1`, for which the TGI amounted to 61.9 µM in the test on SNB-78 CNS; 16.5 µM in the test with XF 498 CNS; 11.3 µM in the test on DMS 273 small cell lung; 25.7 µM in the test on DLD-1 colon; 25.7 µM in the test with UACC-257 melanoma; 10.6 µM in the test on SF-295 CNS. Moreover, the TGI in the test with LXFL 529 NSCLC is 18.2 µM; in the test with RPMI-8226 leukemia it was 17.2 µM; with DMS 114 small cell lung, 50.8 µM; in the test with KM20L2 colon it was 5.22 µM; with BT-549 breast, 19.7 µM; in the test with A549 NSCLC, more than 53.7 µM. This compound also showed a TGI in the test with M19-MEL melanoma of more than 100 µM.
